# In patent US8728978B2, “Biocide compositions (IV)” (Cognis IP Management GmbH, priority 2009, dated 2014):
# Experiment: Solubility of biocides in different solvents at 25° C.
# Type: physicochemical
# Method: Solubility of two fungicides, one herbicide and one insecticide in different solvents at 25° C. was tested.
# [1] = solvent: C8-C10 fatty acid dimethylamide (Ex. C3)
# [2] = solvent: Lactic acid dimethyl amide (Ex. C4)
# [3] = solvent: Levulinic acid tetrahydrofurfuryl ester (Ex. 7)
smiles,measurement,setting,value
O=C(NC(=O)c1c(F)cccc1F)Nc1ccc(OC(F)(F)C(F)OC(F)(F)F)c(Cl)c1 (stereo not drawn) [Novaluron],Solubility of biocides,[1],32 % b.w.
same,Solubility of biocides,[2],22 % b.w.
same,Solubility of biocides,[3],24 % b.w.
CCOc1cc(Oc2ccc(C(F)(F)F)cc2Cl)ccc1[N+](=O)[O-] [Oxyfluorfen],Solubility of biocides,[1],31 % b.w.
same,Solubility of biocides,[2],23 % b.w.
same,Solubility of biocides,[3],33 % b.w.
